Drawing on patent publication US20240208992A1, “MACROCYCLES AS CFTR MODULATORS” (Idorsia Pharmaceuticals Ltd, priority 2021, published 2024), this text covers EC50 and Emax for 14 compounds.

The test concerns the target human F508del-CFTR (Homo sapiens, UniProt P13569, DEL508-508). Put plainly: F508del-CFTR cell surface expression (corrector activity), DiscoveRx ß-galactosidase complementation chemiluminescence assay in recombinant U2OS cell line.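 For all read-outs here: U2OS cells co-expressing ProLink-tagged F508del-CFTR and a membrane-anchored enzyme acceptor, where more surface CFTR restores β-galactosidase activity measured by chemiluminescence.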 As to conditions: U2OS cells, 16h compound incubation; for EC50: EC50, F508del-CFTR cell surface expression, geomean of several measurements; for Emax: U2OS, in relation to the Emax of the corrector lumacaftor (=100%), arithmetic mean.

Chain of human F508del-CFTR (P13569 with tags, fused parts or gaps DEL508-508): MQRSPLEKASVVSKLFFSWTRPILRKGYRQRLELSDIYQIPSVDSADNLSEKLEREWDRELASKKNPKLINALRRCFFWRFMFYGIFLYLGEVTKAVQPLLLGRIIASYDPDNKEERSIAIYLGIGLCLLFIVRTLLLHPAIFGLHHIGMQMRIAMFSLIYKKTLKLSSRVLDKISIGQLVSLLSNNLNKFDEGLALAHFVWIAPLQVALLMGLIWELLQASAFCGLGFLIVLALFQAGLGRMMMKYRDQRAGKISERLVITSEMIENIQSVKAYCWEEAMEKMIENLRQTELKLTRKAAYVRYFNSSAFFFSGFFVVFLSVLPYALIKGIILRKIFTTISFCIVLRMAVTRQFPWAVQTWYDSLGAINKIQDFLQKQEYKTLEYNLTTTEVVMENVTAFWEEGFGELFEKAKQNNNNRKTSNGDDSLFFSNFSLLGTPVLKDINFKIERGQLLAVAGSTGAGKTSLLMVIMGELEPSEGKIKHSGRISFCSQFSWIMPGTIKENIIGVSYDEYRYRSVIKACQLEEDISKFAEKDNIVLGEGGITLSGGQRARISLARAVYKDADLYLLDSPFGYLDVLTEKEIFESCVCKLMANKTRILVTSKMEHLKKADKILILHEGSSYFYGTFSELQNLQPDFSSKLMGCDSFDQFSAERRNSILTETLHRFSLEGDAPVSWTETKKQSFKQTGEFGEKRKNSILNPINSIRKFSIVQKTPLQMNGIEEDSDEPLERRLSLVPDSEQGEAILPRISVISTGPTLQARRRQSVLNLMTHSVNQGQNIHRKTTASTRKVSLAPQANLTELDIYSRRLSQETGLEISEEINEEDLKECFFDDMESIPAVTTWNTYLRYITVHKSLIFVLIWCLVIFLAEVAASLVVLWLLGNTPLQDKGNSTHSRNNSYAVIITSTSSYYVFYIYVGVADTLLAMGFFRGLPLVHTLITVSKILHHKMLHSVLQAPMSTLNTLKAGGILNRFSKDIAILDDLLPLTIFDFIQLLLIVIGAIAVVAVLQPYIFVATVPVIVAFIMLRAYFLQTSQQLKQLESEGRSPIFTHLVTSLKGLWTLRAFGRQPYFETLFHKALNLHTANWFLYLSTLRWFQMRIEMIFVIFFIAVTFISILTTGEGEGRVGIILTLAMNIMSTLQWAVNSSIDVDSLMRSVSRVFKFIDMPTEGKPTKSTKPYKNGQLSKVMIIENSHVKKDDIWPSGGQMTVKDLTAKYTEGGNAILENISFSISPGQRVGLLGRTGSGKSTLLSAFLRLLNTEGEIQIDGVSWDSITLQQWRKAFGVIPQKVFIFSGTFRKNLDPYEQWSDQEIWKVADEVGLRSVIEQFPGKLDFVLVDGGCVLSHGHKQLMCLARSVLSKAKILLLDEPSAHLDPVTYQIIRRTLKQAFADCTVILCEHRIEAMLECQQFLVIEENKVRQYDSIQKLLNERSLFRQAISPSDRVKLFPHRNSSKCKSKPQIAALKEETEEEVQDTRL

A word on the EC50: it is the concentration at which the effect is half-maximal. As a reminder, the Emax is the greatest response seen or fitted, relative to the assay's reference. As for `COc1ccc(CCNC(=O)[C@@H]2CC(=O)N(C)[C@@H](CC(C)C)C(=O)N(C)[C@H](Cc3nc(-c4ccc(F)cn4)no3)C(=O)N[C@H](Cc3ccccc3)COc3cnc4ccc(F)cc4c3C(=O)N2)nc1` [Example 847, (3S,7S,10R,13R)-13-benzyl-20-fluoro-10-((3-(5-fluoropyridin-2-yl)-1,2,4-oxadiazol-5-yl)methyl)-7-isobutyl-N-(2-(5-methoxypyridin-2-yl)ethyl)-6,9-dimethyl-1,5,8,11-tetraoxo-1,2,3,4,5,6,7,8,9,10,11,12,13,14-tetradecahydro-[1]oxa[4,7,10,14]tetraazacycloheptadecino[17,16-c]quinoline-3-carboxamide], the EC50 was 186 nM and the Emax was 340%.
In the case of `COc1nc(C)cc2c1C(=O)N[C@H](C(=O)NC[C@@H](O)c1ccccc1)CC(=O)N(C)[C@@H](CC(C)C)C(=O)N(C)[C@H](Cc1nc(C(F)(F)F)no1)C(=O)N[C@H](Cc1ccccc1)CO2` [Example 848, (3R,6R,9S,13S)-3-benzyl-N-((S)-2-hydroxy-2-phenylethyl)-9-isobutyl-16-methoxy-7,10,18-trimethyl-5,8,11,15-tetraoxo-6-((3-(trifluoromethyl)-1,2,4-oxadiazol-5-yl)methyl)-2,3,4,5,6,7,8,9,10,11,12,13,14,15-tetradecahydropyrido[3,4-p][1]oxa[4,7,10,14]tetraazacycloheptadecine-13-carboxamide], the EC50 was determined as 225 nM and the Emax turned out to be 364%.
Consider `COc1nc(C)cc2c1C(=O)N[C@H](C(=O)NCCc1nc(C3CC3)no1)CC(=O)N(C)[C@@H](CC(C)C)C(=O)N(C)[C@H](Cc1nc(C(F)(F)F)no1)C(=O)N[C@H](Cc1ccccc1)CO2` [Example 849, (3R,6R,9S,13S)-3-benzyl-N-(2-(3-cyclopropyl-1,2,4-oxadiazol-5-yl)ethyl)-9-isobutyl-16-methoxy-7,10,18-trimethyl-5,8,11,15-tetraoxo-6-((3-(trifluoromethyl)-1,2,4-oxadiazol-5-yl)methyl)-2,3,4,5,6,7,8,9,10,11,12,13,14,15-tetradecahydropyrido[3,4-p][1]oxa[4,7,10,14]tetraazacycloheptadecine-13-carboxamide], for which the EC50 was 46 nM and the Emax is 465%.
Regarding `COc1nccc2c1C(=O)N[C@H](C(=O)NCCCOC(F)F)CC(=O)N(C)[C@@H](CC(C)C)C(=O)N1CCCC[C@@H]1C(=O)N[C@H](Cc1ccccc1)CO2` [Example 850, (7S,11S,17aR,20R)-20-benzyl-N-(3-(difluoromethoxy)propyl)-11-isobutyl-4-methoxy-10-methyl-5,9,12,18-tetraoxo-5,6,7,8,9,10,11,12,15,16,17,17a,18,19,20,21-hexadecahydro-14H-dipyrido[2,1-f:3′,4′-p][1]oxa[4,7,10,14]tetraazacycloheptadecine-7-carboxamide], the EC50 is 1150 nM and the Emax was 224%.
On to `Cc1noc(CC[C@@H]2C(=O)N[C@H](Cc3ccccc3)COc3cnc4ccc(F)cc4c3C(=O)N[C@H](C(=O)NCCc3noc(C4CC4)n3)CC(=O)N(C)[C@@H](CC(C)C)C(=O)N2C)n1` [Example 851, (3S,7S,10R,13R)-13-benzyl-N-(2-(5-cyclopropyl-1,2,4-oxadiazol-3-yl)ethyl)-20-fluoro-7-isobutyl-6,9-dimethyl-10-(2-(3-methyl-1,2,4-oxadiazol-5-yl)ethyl)-1,5,8,11-tetraoxo-1,2,3,4,5,6,7,8,9,10,11,12,13,14-tetradecahydro-[1]oxa[4,7,10,14]tetraazacycloheptadecino[17,16-c]quinoline-3-carboxamide], for which the EC50 is 148 nM and the maximal effect (Emax) came to 310%.
In the same order, the values of `Cc1cc(CCNC(=O)[C@@H]2CC(=O)N(C)[C@@H](CC(C)C)C(=O)N3CCN(c4ccc(F)cn4)C[C@@H]3C(=O)N[C@H](Cc3ccccc3)COc3cnc4ccccc4c3C(=O)N2)on1` [Example 852, (9S,13S,19aR,22R)-22-benzyl-18-(5-fluoropyridin-2-yl)-13-isobutyl-12-methyl-N-(2-(3-methylisoxazol-5-yl)ethyl)-7,11,14,20-tetraoxo-7,8,9,10,11,12,13,14,17,18,19,19a,20,21,22,23-hexadecahydro-16H-pyrazino[2′,11:6,7][1]oxa[4,7,10,14]tetraazacycloheptadecino[17,16-c]quinoline-9-carboxamide] are 163 nM and 249%.
As for `COc1cccc(CCNC(=O)[C@@H]2CC(=O)N(C)[C@@H](CC(C)C)C(=O)N3CCN(c4ccc(F)cn4)C[C@@H]3C(=O)N[C@H](Cc3ccccc3)COc3cnc4ccccc4c3C(=O)N2)c1` [Example 853, (9S,13S,19aR,22R)-22-benzyl-18-(5-fluoropyridin-2-yl)-13-isobutyl-N-(3-methoxyphenethyl)-12-methyl-7,11,14,20-tetraoxo-7,8,9,10,11,12,13,14,17,18,19,19a,20,21,22,23-hexadecahydro-16H-pyrazino[2′,1′:6,7][1]oxa[4,7,10,14]tetraazacycloheptadecino[17,16-c]quinoline-9-carboxamide], the concentration for a half-maximal effect (EC50) came out at 92 nM and the maximum response (Emax) is 322%.
For `COc1cc(CCNC(=O)[C@@H]2CC(=O)N(C)[C@@H](CC(C)C)C(=O)N(C)[C@H](CC3CCC(F)(F)CC3)C(=O)N[C@H](Cc3ccccc3)COc3ccnc(OC)c3C(=O)N2)on1` [Example 854, (3R,6R,9S,13S)-3-benzyl-6-((4,4-difluorocyclohexyl)methyl)-9-isobutyl-16-methoxy-N-(2-(3-methoxyisoxazol-5-yl)ethyl)-7,10-dimethyl-5,8,11,15-tetraoxo-2,3,4,5,6,7,8,9,10,11,12,13,14,15-tetradecahydropyrido[3,4-p][1]oxa[4,7,10,14]tetraazacycloheptadecine-13-carboxamide], in that order: 136 nM and 326%.
For `COc1nccc2c1C(=O)N[C@H](C(=O)NCCc1cc(C)no1)CC(=O)N(C)[C@@H](CC(C)C)C(=O)N(C)[C@H](CCOc1ccccc1)C(=O)N[C@H](Cc1ccccc1)CO2` [Example 855, (3R,6R,9S,13S)-3-benzyl-9-isobutyl-16-methoxy-7,10-dimethyl-N-(2-(3-methylisoxazol-5-yl)ethyl)-5,8,11,15-tetraoxo-6-(2-phenoxyethyl)-2,3,4,5,6,7,8,9,10,11,12,13,14,15-tetradecahydropyrido[3,4-p][1]oxa[4,7,10,14]tetraazacycloheptadecine-13-carboxamide], in that order: 80 nM and 341%.
For `COc1cc(CCNC(=O)[C@@H]2CC(=O)N(C)[C@@H](CC(C)C)C(=O)N(C)[C@H](CCOc3ccccc3)C(=O)N[C@H](Cc3ccccc3)COc3ccnc(OC)c3C(=O)N2)on1` [Example 856, (3R,6R,9S,13S)-3-benzyl-9-isobutyl-16-methoxy-N-(2-(3-methoxyisoxazol-5-yl)ethyl)-7,10-dimethyl-5,8,11,15-tetraoxo-6-(2-phenoxyethyl)-2,3,4,5,6,7,8,9,10,11,12,13,14,15-tetradecahydropyrido[3,4-p][1]oxa[4,7,10,14]tetraazacycloheptadecine-13-carboxamide], the concentration for a half-maximal effect (EC50) came to 35 nM and the Emax was found to be 357%.
For `COc1nccc2c1C(=O)N[C@H](C(=O)NCCc1noc(C3CC3)n1)CC(=O)N(C)[C@@H](CC(C)C)C(=O)N(C)[C@H](COC1CCC1)C(=O)N[C@H](Cc1ccccc1)CO2` [Example 857, (3R,6R,9S,13S)-3-benzyl-6-(cyclobutoxymethyl)-N-(2-(5-cyclopropyl-1,2,4-oxadiazol-3-yl)ethyl)-9-isobutyl-16-methoxy-7,10-dimethyl-5,8,11,15-tetraoxo-2,3,4,5,6,7,8,9,10,11,12,13,14,15-tetradecahydropyrido[3,4-p][1]oxa[4,7,10,14]tetraazacycloheptadecine-13-carboxamide], the EC50 stood at 407 nM and the Emax was 337%.
For `COc1nccc2c1C(=O)N[C@H](C(=O)NCCc1cc(C)no1)CC(=O)N(C)[C@@H](CC(C)C)C(=O)N(C)[C@H](CCOC1CCCCC1)C(=O)N[C@H](Cc1ccccc1)CO2` [Example 858, (3R,6R,9S,13S)-3-benzyl-6-(2-(cyclohexyloxy)ethyl)-9-isobutyl-16-methoxy-7,10-dimethyl-N-(2-(3-methylisoxazol-5-yl)ethyl)-5,8,11,15-tetraoxo-2,3,4,5,6,7,8,9,10,11,12,13,14,15-tetradecahydropyrido[3,4-p][1]oxa[4,7,10,14]tetraazacycloheptadecine-13-carboxamide], in that order: 95 nM and 308%.
As for `COc1nccc2c1C(=O)N[C@H](C(=O)NCCc1noc(C3CC3)n1)CC(=O)N(C)[C@@H](CC(C)C)C(=O)N(C)[C@H](Cc1nc(-c3ccccc3)no1)C(=O)N[C@H](Cc1ccccc1)CO2` [Example 859, (3R,6R,9S,13S)-3-benzyl-N-(2-(5-cyclopropyl-1,2,4-oxadiazol-3-yl)ethyl)-9-isobutyl-16-methoxy-7,10-dimethyl-5,8,11,15-tetraoxo-6-((3-phenyl-1,2,4-oxadiazol-5-yl)methyl)-2,3,4,5,6,7,8,9,10,11,12,13,14,15-tetradecahydropyrido[3,4-p][1]oxa[4,7,10,14]tetraazacycloheptadecine-13-carboxamide], the concentration for a half-maximal effect (EC50) stood at 36 nM and the Emax came to 342%.
Take `COc1cccc(CCNC(=O)[C@@H]2CC(=O)N(C)[C@@H](CC(C)C)C(=O)N(C)[C@H](C)C(=O)N[C@H](Cc3ccccc3)COc3nc(C)nc(OC)c3C(=O)N2)c1` [Example 860, (7S,11S,14R,17R)-17-benzyl-11-isobutyl-4-methoxy-N-(3-methoxyphenethyl)-2,10,13,14-tetramethyl-5,9,12,15-tetraoxo-5,6,7,8,9,10,11,12,13,14,15,16,17,18-tetradecahydropyrimido[5,4-p][1]oxa[4,7,10,14]tetraazacycloheptadecine-7-carboxamide]: the EC50 came out at 578 nM and the maximal effect (Emax) was found to be 288%.
